In patent publication US5886026A, “Anti-angiogenic compositions and methods of use” (priority 1994, dated 1999):

Assays:
synovial fibroblasts = assay: Synoviocyte proliferation (Trypan blue); type: cell-based, bovine; conditions: 24 hours
normal chondrocytes = assay: Chondrocyte viability (Trypan blue); type: cell-based; conditions: 72 hours
neutrophils = assay: Neutrophil chemiluminescence in response to plasma opsonized CPPD or zymosan; type: cell-based, human
Procedure: CPPD (triclinic) crystals were prepared. The size distribution of the crystals was approximately 33% less than 10 μm, 58% between 10 and 20 μm and 9% greater than 20 μm. Crystals prepared under the above conditions are pyrogen free and crystals produced under sterile, pyrogen free conditions produced the same magnitude of neutrophil response as crystals prepared under normal, non-sterile laboratory conditions.
All experiments that studied neutrophil responses to crystals or zymosan in the presence of paclitaxel were performed using plasma opsonized CPPD or zymosan. Opsonization of crystals or zymosan was done with 50% heparinized plasma at a concentration of 75 mg of CPPD or 12 mg of zymosan per ml of 50% plasma. Crystals or zymosan were incubated with plasma for 30 min. at 37° C. and then washed in excess HBSS.
All chemiluminescence studies were performed at a cell concentration of 5,000,000 cells/ml in HBSS with CPPD (50 mg/ml). In all experiments 0.5 ml of cells was added to 25 mg of CPPD or 0.5 mg of zymosan in 1.5 ml capped Eppendorf tubes. 10 μl of luminol dissolved in 25% DMSO in HBSS was added to a final concentration of 1 μM and the samples were mixed to initiate neutrophil activation by the crystals or zymosan. Chemiluminescence was monitored using an LKB Luminometer (Model 1250.) at 37° C. with shaking immediately prior to measurements to resuspend the crystals or zymosan. Control tubes contained cells, drug and luminol (crystals absent).

synoviocytes = assay: 3H-Thymidine incorporation into synoviocytes; type: cell-based
Procedure: At these times, […] of ^3 H-thymidine was added to the cell culture and incubated for 2 hours at 37° C. The cells were placed through a cell harvester, washed through a filter, the filters were cut, and the amount of radiation contained in the filter sections determined. Once the amount of thymidine incorporated into the cells was ascertained, it was used to determine the rate of cell proliferation. This experiment was repeated three times and the data collated together.

SMILES: CC(=O)O[C@H]1C(=O)[C@@]2(C)[C@H]([C@H](OC(=O)c3ccccc3)[C@]3(O)C[C@H](OC(=O)[C@H](O)[C@@H](NC(=O)c4ccccc4)c4ccccc4)C(C)=C1C3(C)C)[C@]1(OC(C)=O)CO[C@@H]1C[C@@H]2O [paclitaxel]
- toxicity to synovial fibroblasts (synovial fibroblasts; 10^-6 M and 10^-5 M): toxic to the synovial fibroblasts in vitro
- cytotoxicity to proliferating synovial fibroblasts (synovial fibroblasts): cytotoxic to proliferating synovial fibroblasts in a concentration dependent manner
- minimal effective concentration (synovial fibroblasts; Bos taurus, Fibroblast, read-out: lowest concentration inhibiting proliferation): ≤ 0.1 µM
- cytotoxicity to normal chondrocytes (normal chondrocytes): no cytotoxicity to normal chondrocytes
- viability of normal chondrocytes (normal chondrocytes; up to 10^-5 M): does not affect the viability of normal chondrocytes
- inhibition of chemiluminescence over time (neutrophils; 28 μM, CPPD and zymosan): significant at all times from 3 to 16 minutes
- effect on chemiluminescence of controls (neutrophils; all concentrations, no stimulus): no effect on the chemiluminescence values of controls
- neutrophil activation (neutrophils; crystal or particulate induced): strong inhibitor
- minimal effective concentration (synoviocytes; 6 or 24 hours, read-out: lowest concentration inhibiting 3H-thymidine incorporation): ≤ 0.01 µM
- inhibition of thymidine incorporation, high vs low concentrations (synoviocytes; 6 hours): no significant difference
- inhibition of thymidine incorporation at low concentration (synoviocytes; 24 hours, 10^-8 M): some of the effect was lost at lower concentrations of the drug (10^-8 M), but was still substantially lower than that seen in control animals
